Patent US11286243B2 (GLOBAL BLOOD THERAPEUTICS, INC., priority 2018, dated 2022)

Biological target: T1, human ferroportin (Homo sapiens, UniProt Q9NP59)
T1 construct: luciferase reporter (probably NanoLuc: read with the Nano-Glo Luciferase Assay System); expressed in transfected cells; host or cells: CHO cells, stably transfected, doxycycline-inducible expression
T1 sequence (Q9NP59 1-571): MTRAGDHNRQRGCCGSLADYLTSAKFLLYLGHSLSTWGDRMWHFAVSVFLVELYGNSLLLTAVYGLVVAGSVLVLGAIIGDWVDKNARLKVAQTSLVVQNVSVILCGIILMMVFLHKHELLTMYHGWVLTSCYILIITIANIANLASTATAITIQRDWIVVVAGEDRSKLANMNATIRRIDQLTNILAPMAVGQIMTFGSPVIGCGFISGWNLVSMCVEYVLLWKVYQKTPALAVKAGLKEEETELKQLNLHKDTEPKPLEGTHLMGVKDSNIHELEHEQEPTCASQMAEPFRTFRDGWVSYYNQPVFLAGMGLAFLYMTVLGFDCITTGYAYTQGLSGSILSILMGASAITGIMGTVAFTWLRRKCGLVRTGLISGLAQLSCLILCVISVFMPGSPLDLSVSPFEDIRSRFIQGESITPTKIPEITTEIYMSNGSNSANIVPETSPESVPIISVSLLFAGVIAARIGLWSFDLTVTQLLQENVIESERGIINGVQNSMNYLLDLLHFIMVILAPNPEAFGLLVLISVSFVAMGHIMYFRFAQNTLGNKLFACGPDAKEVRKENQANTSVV
Experiment: In-vitro ferroportin internalization assay (luciferase reporter)
Assay type: cell-based
Conditions: average pEC50; stably-transfected CHO cell line expressing human ferroportin tagged to a luciferase reporter; 6 h incubation with test compounds
Procedure: The protocol for this assay is generally as described in WO2018/128828, incorporated herein by reference in its entirety. Functional internalization of ferroportin protein was measured using a stably-transfected CHO cell line expressing the human ferroportin tagged to a luciferase reporter. Cells were plated for 24 h in the presence of ferric ammonium citrate (FAC). Ferroportin protein expression was induced with doxycycline for 24 h. The next day, the compounds were added. Test compounds were dissolved in DMSO. Cells were incubated with the test compounds for 6 h, and subsequently luciferase activity was measured using the Nano-Glo Luciferase Assay System and Glomax (Promega, Madison, Wis.).
The average pEC50 was determined for the test compounds.

pEC50 | Compound
7.8 | Fc1cccnc1CNc1ncnc2sc(CCNCCc3nc4ccccc4[nH]3)nc12 [Compound 1, 2-(2-{[2-(1H-1,3-benzodiazol-2-yl)ethyl]amino}ethyl)-N-[(3-fluoropyridin-2-yl)methyl]-[1,3]thiazolo[5,4-d]pyrimidin-7-amine]
7.3 | Fc1cccnc1CNc1ncnc2oc(CCNCCc3nc4ccccc4[nH]3)nc12 [Compound 2, 2-(2-{[2-(1H-1,3-benzodiazol-2-yl)ethyl]amino}ethyl)-N-[(3-fluoropyridin-2-yl)methyl]-[1,3]oxazolo[5,4-d]pyrimidin-7-amine]
7.1 | Fc1ccc2[nH]c(CCNCCc3nc4c(NCc5ncccc5F)ncnc4s3)nc2c1 [Compound 3, 2-(2-{[2-(5-fluoro-1H-1,3-benzodiazol-2-yl)ethyl]amino}ethyl)-N-[(3-fluoropyridin-2-yl)methyl]-[1,3]thiazolo[5,4-d]pyrimidin-7-amine]
6.6 | c1ccc(CNc2ncnc3sc(CCNCCc4nc5ccccc5[nH]4)nc23)cc1 [Compound 4, 2-(2-{[2-(1H-1,3-benzodiazol-2-yl)ethyl]amino}ethyl)-N-benzyl-[1,3]thiazolo[5,4-d]pyrimidin-7-amine]
6.8 | c1ccc(CNc2ncnc3sc(CCNCCc4nc5ccccc5[nH]4)nc23)nc1 [Compound 5, 2-(2-{[2-(1H-1,3-benzodiazol-2-yl)ethyl]amino}ethyl)-N-[(pyridin-2-yl)methyl]-[1,3]thiazolo[5,4-d]pyrimidin-7-amine]
7.8 | Clc1cccnc1CNc1ncnc2sc(CCNCCc3nc4ccccc4[nH]3)nc12 [Compound 6, 2-(2-{[2-(1H-1,3-benzodiazol-2-yl)ethyl]amino}ethyl)-N-[(3-chloropyridin-2-yl)methyl]-[1,3]thiazolo[5,4-d]pyrimidin-7-amine]
6.7 | Fc1cccnc1CNc1ncnc2sc(CCNCc3nc4ccccc4[nH]3)nc12 [Compound 7, 2-(2-{[(1H-1,3-benzodiazol-2-yl)methyl]amino}ethyl)-N-[(3-fluoropyridin-2-yl)methyl]-[1,3]thiazolo[5,4-d]pyrimidin-7-amine]
6.4 | Fc1ccc(CNc2ncnc3sc(CCNCCc4nc5ccccc5[nH]4)nc23)nc1 [Compound 8, 2-(2-{[2-(1H-1,3-benzodiazol-2-yl)ethyl]amino}ethyl)-N-[(5-fluoropyridin-2-yl)methyl]-[1,3]thiazolo[5,4-d]pyrimidin-7-amine]
6.3 | c1cnc(CNc2ncnc3sc(CCNCCc4nc5ccccc5[nH]4)nc23)nc1 [Compound 9, 2-(2-{[2-(1H-1,3-benzodiazol-2-yl)ethyl]amino}ethyl)-N-[(pyrimidin-2-yl)methyl]-[1,3]thiazolo[5,4-d]pyrimidin-7-amine]
5.7 | CN(CCc1nc2ccccc2[nH]1)CCc1nc2c(NCc3ncccc3F)ncnc2s1 [Compound 10, 2-(2-{[2-(1H-1,3-benzodiazol-2-yl)ethyl](methyl)amino}ethyl)-N-[(3-fluoropyridin-2-yl)methyl]-[1,3]thiazolo[5,4-d]pyrimidin-7-amine]
6.7 | COc1cccnc1CNc1ncnc2sc(CCNCCc3nc4ccccc4[nH]3)nc12 [Compound 11, 2-(2-{[2-(1H-1,3-benzodiazol-2-yl)ethyl]amino}ethyl)-N-[(3-methoxypyridin-2-yl)methyl]-[1,3]thiazolo[5,4-d]pyrimidin-7-amine]
7.3 | Cc1cccnc1CNc1ncnc2sc(CCNCCc3nc4ccccc4[nH]3)nc12 [Compound 12, 2-(2-{[2-(1H-1,3-benzodiazol-2-yl)ethyl]amino}ethyl)-N-[(3-methylpyridin-2-yl)methyl]-[1,3]thiazolo[5,4-d]pyrimidin-7-amine]
8 | Fc1cccnc1CNc1nccc2oc(CCNCCc3nc4ccccc4[nH]3)nc12 [Compound 13, 2-(2-{[2-(1H-1,3-benzodiazol-2-yl)ethyl]amino}ethyl)-N-[(3-fluoropyridin-2-yl)methyl]-[1,3]oxazolo[4,5-c]pyridin-4-amine]
7.8 | Fc1cccnc1CNc1nccc2sc(CCNCCc3nc4ccccc4[nH]3)nc12 [Compound 14, 2-(2-{[2-(1H-1,3-benzodiazol-2-yl)ethyl]amino}ethyl)-N-[(3-fluoropyridin-2-yl)methyl]-[1,3]thiazolo[4,5-c]pyridin-4-amine]
6.8 | Fc1cccnc1CNc1ncnc2sc(CCNCCc3nc4c(F)cccc4[nH]3)nc12 [Compound 15, 2-(2-{[2-(4-fluoro-1H-1,3-benzodiazol-2-yl)ethyl]amino}ethyl)-N-[(3-fluoropyridin-2-yl)methyl]-[1,3]thiazolo[5,4-d]pyrimidin-7-amine]
5.6 | Fc1cccnc1CNc1ncnc2sc(CCNCCc3nc4ccccc4o3)nc12 [Compound 16, 2-(2-{[2-(1,3-benzoxazol-2-yl)ethyl]amino}ethyl)-N-[(3-fluoropyridin-2-yl)methyl]-[1,3]thiazolo[5,4-d]pyrimidin-7-amine]
7.7 | [N-]=[N+]=Nc1cccnc1CNc1ncnc2sc(CCNCCc3nc4ccccc4[nH]3)nc12 [Compound 17, N-[(3-azidopyridin-2-yl)methyl]-2-(2-{[2-(1H-1,3-benzodiazol-2-yl)ethyl]amino}ethyl)-[1,3]thiazolo[5,4-d]pyrimidin-7-amine]
5.7 | COc1nc(NCc2ncccc2F)c2nc(CCNCCc3nc4ccccc4[nH]3)sc2n1 [Compound 18, 2-(2-{[2-(1H-1,3-benzodiazol-2-yl)ethyl]amino}ethyl)-N-[(3-fluoropyridin-2-yl)methyl]-5-methoxy-[1,3]thiazolo[5,4-d]pyrimidin-7-amine]
6.2 | COc1cc2sc(CCNCCc3nc4ccccc4[nH]3)nc2c(NCc2ncccc2F)n1 [Compound 19, 2-(2-{[2-(1H-1,3-benzodiazol-2-yl)ethyl]amino}ethyl)-N-[(3-fluoropyridin-2-yl)methyl]-6-methoxy-[1,3]thiazolo[4,5-c]pyridin-4-amine]
7.5 | Fc1cccnc1CNc1ncnc2sc(C3CN(CCc4nc5ccccc5[nH]4)C3)nc12 [Compound 20, 2-{1-[2-(1H-1,3-benzodiazol-2-yl)ethyl]azetidin-3-yl}-N-[(3-fluoropyridin-2-yl)methyl]-[1,3]thiazolo[5,4-d]pyrimidin-7-amine]
6.2 | Nc1nc(NCc2ncccc2F)c2nc(CCNCCc3nc4ccccc4[nH]3)sc2n1 [Compound 21, 2-(2-{[2-(1H-1,3-benzodiazol-2-yl)ethyl]amino}ethyl)-N7-[(3-fluoropyridin-2-yl)methyl]-[1,3]thiazolo[5,4-d]pyrimidine-5,7-diamine]
6.5 | C#CCCC1(CCC(=O)Nc2ccc3[nH]c(CCNCCc4nc5c(NCc6ncccc6F)ncnc5s4)nc3c2)N=N1 [Compound 22, 3-[3-(but-3-yn-1-yl)-3H-diazirin-3-yl]-N-[2-(2-{[2-(7-{[(3-fluoropyridin-2-yl)methyl]amino}-[1,3]thiazolo[5,4-d]pyrimidin-2-yl)ethyl]amino}ethyl)-1H-1,3-benzodiazol-5-yl]propanamide]
8.8 | Oc1nc(NCc2ncccc2F)c2nc(CCNCCc3nc4ccccc4[nH]3)sc2n1 [Compound 23, 2-(2-{[2-(1H-1,3-benzodiazol-2-yl)ethyl]amino}ethyl)-7-{[(3-fluoropyridin-2-yl)methyl]amino}-[1,3]thiazolo[5,4-d]pyrimidin-5-ol]
